Tests used:
[1] = Dissociation constant, pKa of the compound by capillary electrophoresis; type: physicochemical
[2] = Drug uptake in wild-type C57Bl/6J mouse brain at 30 mg/kg, po after 4 hrs; type: ADME, organism-based; set-up: dose 30 mg/kg, route oral; details: read-out: Drug uptake
[3] = Plasma concentration in wild-type C57Bl/6J mouse at 30 mg/kg, po after 4 hrs; type: ADME, organism-based; set-up: dose 30 mg/kg, route oral
[4] = Ratio of drug level in brain to plasma in wild-type C57Bl/6J mouse at 30 mg/kg, po after 4 hrs; type: ADME, organism-based; set-up: dose 30 mg/kg, route oral; details: read-out: BPR

SMILES	pKa [1]	concentration at 4 h [2]	concentration at 4 h [3]	Kp at 4 h [4]
NC1=NC2(CCc3ccc(NC(=O)c4ccc(Cl)cn4)cc32)CO1 (centres undefined)	8.3			
CC1(c2cccc(NC(=O)c3ccccn3)c2)CSC(N)=N1 (centres undefined)	8.3			
CN1CC[C@@](C)(c2cc(NC(=O)c3ccc(Cl)cn3)ccc2F)N=C1N	> 11	< 13 ng/g	< 3 ng/mL	
C[C@@]1(c2cc(NC(=O)c3ccc(Cl)cn3)ccc2F)CCCOC(N)=N1	10.4			
CN1C(=O)C(C)(c2cccc(NC(=O)c3ccc(Cl)cn3)c2)N=C1N (centres undefined)	7.3			
C[C@@]1(c2cc(NC(=O)c3ccc(Cl)cn3)ccc2F)CCC2(CC2)C(N)=N1	> 11	8 ng/g	81 ng/mL	0.1
C[C@]1(c2cccc(NC(=O)c3ccc(Cl)cn3)c2)N=C(N)c2ccccc21	9.7			
C[C@@]1(c2cccc(NC(=O)c3ccc(Cl)cn3)c2)COC(N)=N1	8.3			
NC1=NC2(CCc3ccc(NC(=O)c4ccc(Cl)cn4)cc32)CS1 (centres undefined)	8.3			

Source: ChEMBL document CHEMBL2401721, “BACE1 inhibitors: a head group scan on a series of amides” (Bioorg Med Chem Lett, 2013)
